The values that follow are results of earlier work, collected in patent US20240032557A1, “AN IRON FORTIFIED TEA COMPOSITION” (Ekaterra Tea Manufacturing USA LLC, priority 2020, published 2024).

Each structure is given as a SMILES string.

For this series the following is noted: water at 25° C.

Regarding `O=C([O-])/C=C/C(=O)[O-].[Fe+2]` [ferrous fumarate], the solubility is recorded as 0.14 g/100 g water.
